According to ChEMBL document CHEMBL1201862, “PubChem BioAssay data set” (2004):
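Interpolation was linear, between the two tested concentrations surrounding the appropriate level; five concentrations were tested over 48 hours in 96-well plates. GI50 is the concentration that inhibits growth by half.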 Active and inactive are the calls of the source. No stated cut-off is given here; in the data, active = GI50 up to about 1.1 µM and inactive = higher.

Experiments:
Experiment in all cases: growth of human tumour cells (NCI), 48 h
[1] = test system: A498
[2] = test system: A549
[3] = test system: BT-549
[4] = test system: CAKI-1
[5] = test system: CCRF-CEM
[6] = test system: COLO 205
[7] = test system: DU-145
[8] = test system: EKVX
[9] = test system: HCC 2998
[10] = test system: HCT-116
[11] = test system: HCT-15
[12] = test system: HL-60
[13] = test system: HOP-62
[14] = test system: HOP-92
[15] = test system: HT-29
[16] = test system: Hs-578T
[17] = test system: IGROV-1
[18] = test system: K562
[19] = test system: LOX IMVI
[20] = test system: M14
[21] = test system: MCF7
[22] = test system: MDA-MB-435
[23] = test system: MDA-N
[24] = test system: MOLT-4
[25] = test system: Malme-3M
[26] = test system: NCI-H226
[27] = test system: NCI-H460
[28] = test system: NCI/ADR-RES
[29] = test system: OVCAR-3
[30] = test system: OVCAR-4
[31] = test system: OVCAR-5
[32] = test system: OVCAR-8
[33] = test system: PC-3
[34] = test system: RXF 393
[35] = test system: SF-268
[36] = test system: SF-295
[37] = test system: SF-539
[38] = test system: SK-MEL-28
[39] = test system: SK-MEL-2
[40] = test system: SK-MEL-5
[41] = test system: SK-OV-3
[42] = test system: SN12C
[43] = test system: SNB-75
[44] = test system: SR
[45] = test system: SW-620
[46] = test system: T47D
[47] = test system: TK-10
[48] = test system: U-251
[49] = test system: UACC-257
[50] = test system: UACC-62
[51] = test system: 786-0
[52] = test system: ACHN
[53] = test system: KM12
[54] = test system: NCI-H23
[55] = test system: NCI-H522
[56] = test system: RPMI-8226
[57] = test system: SNB-19
[58] = test system: UO-31

O=c1[nH]c(=S)[nH]c2c(C3OC(CO)C(O)C3O)nsc12 (stereo not drawn)
GI50 [1]: > 100 µM (inactive) | GI50 [2]: > 100 µM (inactive) | GI50 [3]: > 100 µM (inactive) | GI50 [4]: > 100 µM (inactive) | GI50 [5]: > 100 µM (inactive) | GI50 [6]: > 100 µM (inactive) | GI50 [7]: > 100 µM (inactive) | GI50 [8]: > 100 µM (inactive) | GI50 [9]: > 100 µM (inactive) | GI50 [10]: > 100 µM (inactive) | GI50 [11]: > 100 µM | GI50 [12]: > 100 µM (inactive) | GI50 [13]: > 100 µM (inactive) | GI50 [14]: > 100 µM (inactive) | GI50 [15]: > 100 µM (inactive) | GI50 [16]: > 100 µM (inactive) | GI50 [17]: > 100 µM (inactive) | GI50 [18]: > 100 µM (inactive) | GI50 [19]: > 100 µM (inactive) | GI50 [20]: > 100 µM (inactive) | GI50 [21]: > 100 µM (inactive) | GI50 [22]: > 100 µM (inactive) | GI50 [23]: > 100 µM (inactive) | GI50 [24]: > 100 µM (inactive) | GI50 [25]: > 100 µM (inactive) | GI50 [26]: > 100 µM (inactive) | GI50 [27]: > 100 µM (inactive) | GI50 [28]: > 100 µM (inactive) | GI50 [29]: > 100 µM (inactive) | GI50 [30]: > 100 µM (inactive) | GI50 [31]: > 100 µM (inactive) | GI50 [32]: > 100 µM (inactive) | GI50 [33]: > 100 µM (inactive) | GI50 [34]: > 100 µM (inactive) | GI50 [35]: > 100 µM (inactive) | GI50 [36]: > 100 µM (inactive) | GI50 [37]: > 100 µM (inactive) | GI50 [38]: > 100 µM (inactive) | GI50 [39]: > 100 µM (inactive) | GI50 [40]: > 100 µM (inactive) | GI50 [41]: > 100 µM (inactive) | GI50 [42]: > 100 µM (inactive) | GI50 [43]: > 100 µM (inactive) | GI50 [44]: > 10 µM (inactive) | GI50 [45]: > 100 µM (inactive) | GI50 [46]: > 100 µM (inactive) | GI50 [47]: > 100 µM (inactive) | GI50 [48]: > 100 µM (inactive) | GI50 [49]: > 100 µM (inactive) | GI50 [50]: > 100 µM (inactive)

N=C(N)N/N=C/c1c(Cl)nc2n1CCS2
GI50 [51]: 49.4 µM (inactive) | GI50 [1]: 90.8 µM (inactive) | GI50 [2]: 62.5 µM (inactive) | GI50 [52]: 54.7 µM (inactive) | GI50 [3]: > 100 µM (inactive) | GI50 [4]: > 100 µM (inactive) | GI50 [5]: 71.9 µM (inactive) | GI50 [6]: 34.7 µM (inactive) | GI50 [7]: 90.2 µM (inactive) | GI50 [8]: > 100 µM (inactive) | GI50 [9]: 45.3 µM (inactive) | GI50 [10]: 16.6 µM (inactive) | GI50 [11]: > 100 µM | GI50 [12]: > 100 µM (inactive) | GI50 [13]: 38.1 µM (inactive) | GI50 [14]: 70.3 µM (inactive) | GI50 [15]: 38 µM (inactive) | GI50 [16]: 64.1 µM (inactive) | GI50 [17]: > 100 µM (inactive) | GI50 [18]: 53.2 µM (inactive) | GI50 [53]: 34.8 µM (inactive) | GI50 [19]: > 100 µM (inactive) | GI50 [20]: 56.4 µM (inactive) | GI50 [21]: 46.1 µM (inactive) | GI50 [22]: 59.4 µM (inactive) | GI50 [23]: 29 µM (inactive) | GI50 [24]: 46.8 µM (inactive) | GI50 [25]: > 100 µM (inactive) | GI50 [26]: > 100 µM (inactive) | GI50 [54]: 96.2 µM (inactive) | GI50 [27]: 48.4 µM (inactive) | GI50 [55]: 42.4 µM (inactive) | GI50 [28]: > 100 µM (inactive) | GI50 [29]: 44.4 µM (inactive) | GI50 [30]: > 100 µM (inactive) | GI50 [31]: 76.9 µM (inactive) | GI50 [32]: > 100 µM (inactive) | GI50 [33]: 66.5 µM (inactive) | GI50 [56]: > 100 µM (inactive) | GI50 [34]: 22.5 µM (inactive) | GI50 [35]: 50.8 µM (inactive) | GI50 [36]: 99.1 µM (inactive) | GI50 [37]: 47.5 µM (inactive) | GI50 [38]: > 100 µM (inactive) | GI50 [39]: > 100 µM (inactive) | GI50 [40]: > 10 µM (inactive) | GI50 [41]: 57.3 µM (inactive) | GI50 [42]: 62.5 µM (inactive) | GI50 [57]: > 100 µM (inactive) | GI50 [43]: > 100 µM (inactive) | GI50 [44]: 50.5 µM (inactive) | GI50 [45]: 73.8 µM (inactive) | GI50 [46]: > 100 µM (inactive) | GI50 [47]: > 100 µM (inactive) | GI50 [48]: 82.4 µM (inactive) | GI50 [49]: > 100 µM (inactive) | GI50 [50]: > 100 µM (inactive) | GI50 [58]: > 100 µM (inactive)
